Measured values: US11117947B2, “Double-acylated GLP-1 derivatives” (Novo Nordisk A/S, priority 2011, dated 2021)
Numbered stars: 1 amine (or outer) side, 2 acyl side, 3 side chain; on linkers, the order of the positions; unused ones are H or OH. Square brackets hold non-standard residues; d marks the D form. Side chains are listed from the residue outwards. Peptide text beside a SMILES is read from it. * marks the point of attachment. γGlu = O=C(O)[C@H](CCC(=O)[*:2])N[*:1]; C14 diacid = O=C(O)CCCCCCCCCCCCC(=O)*; AEEA = NCCOCCOCC(=O)O; Aib = CC(C)(N)C(=O)O

Key:
[1] = Pharmacokinetics in rat: half-life after i.v. administration; assay type: in vivo; details: plasma, iv, 6 nmol/kg, male Sprague Dawley rats, approximately 4 rats per group, read-out: t½/h (half-life in rat) (converted)
Protocol: In vivo pharmacokinetic studies in rats were performed with the GLP-1 derivatives of Examples 2, 10, 17-18, and 31, as described in the following. Semaglutide was included for comparison.
Male Sprague Dawley rats of same age with a body weight of approximately 400 g were obtained from Taconic (Denmark) and assigned to the treatments by simple randomisation on body weight, approximately 4 rats per group, so that all animals in each group were of similar body weight.
The GLP-1 derivatives (approximately 6 nmol/ml) were dissolved in 50 mM sodium phosphate, 145 mM sodium chloride, 0.05% tween 80, pH 7.4. Intravenous injections (1.0 ml/kg) of the compounds were given through a catheter implanted in the right jugular vein. Blood was sampled from vena sublingualis for 5 days post dosing. Blood samples (200 μl) were collected in EDTA buffer (8 mM) and then centrifuged at 4° C. and 10000 G for 5 minutes. Plasma samples were kept at −20° C. until analyzed for plasma concentration of the respective GLP-1 compound.
The plasma concentrations of the GLP-1 compounds were determined using a Luminescence Oxygen Channeling Immunoasssay (LOCI), generally as described for the determination of insulin by Poulsen and Jensen in Journal of Biomolecular Screening 2007, vol. 12, p. 240-247. The donor beads were coated with streptavidin, while acceptor beads were conjugated with a monoclonal antibody recognising a mid-/C-terminal epitope of the peptide. Another monoclonal antibody, specific for the N-terminus, was biotinylated. The three reactants were combined with the analyte and formed a two-sited immuno-complex. Illumination of the complex released singlet oxygen atoms from the donor beads, which were channeled into the acceptor beads and triggered chemiluminescence which was measured in an Envision plate reader. The amount of light was proportional to the concentration of the compound.
Plasma concentration-time profiles were analyzed using Phoenix WinNonLin ver. 6.2, Pharsight Inc., Mountain View, Calif., USA), and the half-life (T1/2) calculated using individual plasma concentration-time profiles from each animal.

[2] = target: T1, human GLP-1 receptor (Homo sapiens, UniProt P43220); experiment: GLP-1 receptor binding: displacement of 125I-GLP-1 (SPA) at low and high albumin; details: 2.0% HSA vs 0.001% HSA
T1 construct: expressed in transfected cells; membranes
Procedure, shortened: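 Membranes from hamster cells stably transfected with the receptor, with WGA SPA beads and 0.06 nM [^125I]-GLP-1(7-36)NH2, incubated 120 min at 30 °C with shaking.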

T1 sequence (P43220 24-463): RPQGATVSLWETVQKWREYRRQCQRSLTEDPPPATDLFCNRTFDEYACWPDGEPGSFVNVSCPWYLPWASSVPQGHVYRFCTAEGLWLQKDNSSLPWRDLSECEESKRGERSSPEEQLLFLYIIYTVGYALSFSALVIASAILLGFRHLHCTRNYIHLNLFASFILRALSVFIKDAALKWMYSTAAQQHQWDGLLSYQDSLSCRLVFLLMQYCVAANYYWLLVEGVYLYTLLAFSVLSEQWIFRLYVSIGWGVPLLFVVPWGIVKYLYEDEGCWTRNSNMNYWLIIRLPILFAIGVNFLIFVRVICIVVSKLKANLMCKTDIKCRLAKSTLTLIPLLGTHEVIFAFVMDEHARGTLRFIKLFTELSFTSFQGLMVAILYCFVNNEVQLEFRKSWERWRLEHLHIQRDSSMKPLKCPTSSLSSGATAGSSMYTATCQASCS

half-life [1]: 10 h
Ratio [(IC50/nM) high HSA]/[(IC50/nM) low HSA] [2]: 2.1
Structure (SMILES): CC[C@H](C)[C@H](NC(=O)[C@H](Cc1ccccc1)NC(=O)[C@H](CCCCNC(=O)COCCOCCNC(=O)COCCOCCNC(=O)CC[C@H](NC(=O)CCCCCCCCCCCCC(=O)O)C(=O)O)NC(=O)[C@H](CCCNC(=N)N)NC(=O)[C@H](C)NC(=O)[C@H](C)NC(=O)[C@H](CCC(N)=O)NC(=O)[C@H](CCC(=O)O)NC(=O)[C@H](CCC(=O)O)NC(=O)[C@H](CC(C)C)NC(=O)[C@H](Cc1ccc(O)cc1)NC(=O)[C@H](CO)NC(=O)[C@H](CO)NC(=O)[C@@H](NC(=O)[C@H](CC(=O)O)NC(=O)[C@H](CO)NC(=O)[C@@H](NC(=O)[C@H](CCCCNC(=O)COCCOCCNC(=O)COCCOCCNC(=O)CC[C@H](NC(=O)CCCCCCCCCCCCC(=O)O)C(=O)O)NC(=O)[C@@H](NC(=O)CNC(=O)[C@H](CCC(=O)O)NC(=O)C(C)(C)NC(=O)[C@@H](N)Cc1c[nH]cn1)[C@@H](C)O)[C@@H](C)O)C(C)C)C(=O)N[C@@H](C)C(=O)N[C@@H](Cc1c[nH]cn1)C(=O)N[C@@H](CC(C)C)C(=O)N[C@H](C(=O)N[C@@H](CCC(N)=O)C(=O)NCC(=O)N[C@@H](CCCNC(=N)N)C(=O)NCC(=O)O)C(C)C [Example 18, N^ε12-[2-[2-[2-[[2-[2-[2-[[(4S)-4-carboxy-4-(13-carboxytridecanoylamino)butanoyl]amino]ethoxy]ethoxy]acetyl]amino]ethoxy]ethoxy]acetyl], N^ε27-[2-[2-[2-[[2-[2-[2-[[(4S)-4-carboxy-4-(13-carboxytridecanoylamino)butanoyl]amino]ethoxy]ethoxy]acetyl]amino]ethoxy]ethoxy]acetyl]-[Aib^8,Lys^12,Glu^22,Arg^26,Lys^27,His^31,Gln^34]-GLP-1-(7-37)-peptide] (H-H[Aib]EGTK([AEEA-AEEA-γGlu-C14 diacid])TSDVSSYLEEQAARK([AEEA-AEEA-γGlu-C14 diacid])FIAHLVQGRG-OH)
